Series [1] concerns MNU-induced breast tumors. The note with it: IRL1620 3 nmol/kg alone; 5 doses; 30 days after final dose.
In series [2] the test system is JHU-4 (MAT-LyLu) prostate tumor. The note with it: IRL1620 3 nmol/kg alone; day 19.
Series [3] has the same test system. As to conditions: IRL1620 3 nmol/kg alone; day 16.
Another series deals with MNU-induced breast tumor. Put plainly: Effect of IRL1620 on bio-distribution of [^3H] paclitaxel in tumor and major organs of breast tumor bearing rats. The note with it: IRL1620 3 nmol/kg.
The subject of series [4] is human melanoma cells (UISO-MEL-2) tumor. As to conditions: melanoma mice.
Series [5] has as its system JHU-4 (MAT-LyLu) prostate tumor. Put plainly: Effect of IRL1620 on [^14C]doxorubicin concentration in tumor and organs of prostate tumor bearing rats. The format is in vivo, rat. The note with it: for increase in concentration of [^14C]doxorubicin in tumor compared to saline treated rats: sacrifice 3 hours after. As to the method:
Prostate tumors were induced in male Copenhagen rats using JHU-4 (MAT-LyLu) cells obtained from ATCC (Manassas, Va.). See Gaddipati et al., J Exp Ther Oncol, 4(3): 203-12 (2004) which is hereby incorporated by reference. The cells were maintained in RPMI 1640 medium supplemented with fetal bovine serum (10%) in a humidified incubator containing 5% CO2 at 37° C. Hair was shaved from the dorsal side of the neck, and animals were inoculated with 10,000 JHU-4 (MAT-LyLu) cells in 100 μl phosphate buffered saline by subcutaneous (s.c.) injection. Tumor appearance and location was monitored by manual palpation and tumor diameters were measured with a digital caliper. Experimental procedures began once tumor size reached about 200 mm^3.
Biodistribution Study. Tumor bearing rats were randomly grouped (N=6/group) to receive saline or IRL1620 (1, 3 or 6 nmol/kg) via the tail vein in a final volume of 0.2 ml. Rats from each group then received [^14C]doxorubicin (1 μCi/rat) i.v. in a final volume of 1.0 ml 15 minutes after saline or IRL1620 administration. Animals were then sacrificed 3 hours after [^14C]doxorubicin administration. The concentration of [^14C]doxorubicin in the tumor, heart, brain, kidneys, liver, lungs, bone marrow, prostate, skeletal muscles and spleen were examined. Specifically, tumor and organs were sliced into small pieces. The femurs from both legs were separated and weighed with bone marrow flushed out using a syringe containing tissue solubilizer. About 500 mg of tissue or tumor was placed in separate vials containing tissue solubilizer (6 ml) and incubated in a water bath at about 50° C. The vials were removed from the water bath after the tissue or tumor was dissolved and 1.2 ml of 10% glacial acetic acid was added. The contents of the vial were then equally divided into 3 vials and 15 ml of liquid scintillation cocktail (Safety Solve, RPI Corp, Chicago, Ill.) was added to each vial and kept overnight for equilibration. The radioactivity in the tubes was counted using a liquid scintillation counter (Beckman Coulter, LS 6500).

Series [6] in a line: Effect of IRL1620 on plasma pharmacokinetics of paclitaxel, HPLC-UV. As to conditions: normal or tumor bearing rats; paclitaxel i.v. 3 mg/kg 15 minutes after IRL1620 3 nmol/kg. The format is in vivo, rat. As to the method:
Virgin female Sprague Dawley rats (Harlan Co., Madison, Wis.), 48 days old (120-140 g) were used for this study. Upon arrival, all rats were housed three to a cage, in a room with controlled temperature (23±1° C.), humidity (50±10%) and artificial light (0600-1800 hr). The rats were given food and water ad libitum. The experiments were begun only after the rats have been acclimatized to the environment for at least 4 days.
N-methyl-n-nitrosourea (MNU) was administered at a dose of 50 mg/kg, i.p. and rats were palpated twice weekly. Once tumors reached about 75-100 mm^3, pharmacokinetic studies were performed.
HPLC-UV studies. […]
Plasma samples were analyzed for paclitaxel using an HPLC system. […] A 100 μL (lower standard curve and samples collected after IV administration) aliquot of the reconstituted material was injected into a 4 mm NovaPak 150×3.9 mm C18 column (Waters Associates, Milford, Mass.) preceded by a 4 mm NovaPak 20×3.9 mm C18 precolumn using a Waters 2695 separations module connected to a Waters 2487 absorbance detector set at 227 nm. […] Plasma concentrations for paclitaxel were calculated from the ratio of the area of the paclitaxel peak to the area of the N-cyclohexyl benzamide peak using least-squares linear regression and weighting by 1/x. Within day and between days variability measured by a coefficient of variation was <10%. […]

[7] abbreviates: paclitaxel plasma, three compartmental model, tumor bearing rats, after vehicle or IRL1620 3 nmol/kg.

The structures appear in SMILES notation. Read-outs that look alike come from different tables or passages of the source. *1 amine or outer side, *2 acyl side, *3 side chain or, on linkers, in order; H or OH if unused. Where a SMILES comes first, the peptide text is derived from it. Suc = O=C(CCC(=O)[*:2])[*:1]

For `CC[C@H](C)[C@H](NC(=O)[C@H](CC(=O)O)NC(=O)[C@H](CC(C)C)NC(=O)[C@H](Cc1c[nH]cn1)NC(=O)[C@H](C)NC(=O)[C@H](Cc1ccccc1)NC(=O)[C@H](Cc1ccc(O)cc1)NC(=O)[C@@H](NC(=O)[C@H](C)NC(=O)[C@H](CCC(=O)O)NC(=O)[C@H](CCC(=O)O)NC(=O)[C@H](CC(=O)O)NC(=O)CCC(=O)O)C(C)C)C(=O)N[C@H](C(=O)N[C@@H](Cc1c[nH]c2ccccc12)C(=O)O)[C@@H](C)CC` [IRL1620, N-suc-[Glu9, Ala11, 15]ET-1 (8-21)] (Suc-DEEAVYFAHLDIIW-OH), in series [1], the “increase in body weight compared to baseline” value was under 10%. Moreover, the body weight in series [2] was 175.72 ± 2.35 g. For the same molecule, for the setting “non-compartmental analysis, tumor bearing rats, IRL1620 3 nmol/kg i.v. 15 minutes before paclitaxel”, the “effect on the pharmacokinetic profile of paclitaxel” value is “did not affect”. The molecule further registered a Lambda (paclitaxel plasma, non-compartmental, tumor bearing rats, paclitaxel i.v. 15 minutes after vehicle or IRL1620 3 nmol/kg) of 0.10 ± 0.05. Under setting [7], this molecule gave a K10 of 1.72 ± 0.57, a K12 of 34.93 ± 23.26 and a K13 of 3.92 ± 1.88. For the same molecule, under “three compartmental model, IRL1620 3 nmol/kg 15 minutes before paclitaxel”, the “paclitaxel compartmental pharmacokinetic parameters in the IRL1620 treated group versus the vehicle treated group” value is recorded as “not significantly different”. Moreover, in series [3], the body weight is 202.2 ± 7.28 g and the “percent difference in body weight gain from the beginning of the experiment” value came out at 14.19±1.66%. For the same molecule, the “accumulation of paclitaxel in the liver, lungs, kidneys and spleen compared to control animals” value in the series on MNU-induced breast tumor is given as “did not significantly alter”. Also, the “increase in tumor paclitaxel concentration compared to saline treated rats” value in the series on MNU-induced breast tumor ([^3H] paclitaxel administered 15 minutes after IRL1620, sacrifice 3 hours after paclitaxel) is reported as 277.1%. Also, the “increase in tumor paclitaxel concentration compared to saline treated rats” value with MNU-induced breast tumor ([^3H] paclitaxel administered 240 minutes after IRL1620) is recorded as 34.7%. The “accumulation of [^3H]paclitaxel in the heart, kidneys, liver, lungs or spleen compared to saline treated animals” value in series [4] (IRL1620 3 nmol/kg) is “did not produce significant increases”. Further, the “increase in tumor [^3H]paclitaxel compared to vehicle treated mice” value in series [4] (IRL1620 3 nmol/kg 15 minutes before [^3H]paclitaxel) is 572.99%. Also, in series [4] (IRL1620 3 nmol/kg 15 minutes before [^3H]paclitaxel, sacrifice 3 hours after), the “tumor [^3H]paclitaxel concentration” value came out at 274.28 nmol/g tissue. In addition, the “change in the uptake of [^14C]doxorubicin in tumor or other tissues” value in series [5] (1 nmol/kg IRL1620 15 minutes before [^14C]doxorubicin) was “did not produce any significant change”. Besides, the “increase in concentration of [^14C]doxorubicin in tumor compared to saline treated rats” value in series [5] (3 nmol/kg IRL1620 15 minutes before [^14C]doxorubicin) was 115.85%. Besides, the “increase in concentration of [^14C]doxorubicin in tumor compared to saline treated rats” value in series [5] (6 nmol/kg IRL1620 15 minutes before [^14C]doxorubicin) is 80.02%. Besides, the “accumulation of [^14C]doxorubicin in the heart, brain, kidneys, liver, lungs, bone marrow, prostate, skeletal muscles or spleen compared to control animals” value in series [5] (IRL1620 1, 3 or 6 nmol/kg) is on record as “No dose of IRL1620 produced significant increases”. Besides, the “pharmacokinetic profile of paclitaxel” value in series [6] is “not affected”.

Source of the values: patent publication US8729023B2 (priority 2002, dated 2014).
